SMILES strings stand for the structures.

As to `C#CCN1C(=O)N(c2ccc(C#N)c(C(F)(F)F)c2)C(=O)C1(CO)CO`, the melting point fell in the range of 125 to 126 °C. Then `COC(c1ccccc1)C1CCCCCC(Cc2ccccc2)C1=O` (stereo not drawn), with 83 to 84 °C; and `CC(C)OC(=O)N1CCC(c2ccc3oc(-c4ccc(S(C)(=O)=O)cc4F)nc3c2)CC1`, with 151 to 156 °C; and `ICc1ccc2c(c1)OCO2`, with 51 °C. The figure for `COc1ccc(Nc2nc(NC(C)C)nc(N(C)C3CCNCC3)n2)cc1Cl` is 129 °C; for `COc1cc(O)c(C(=O)C=Cc2cccn2C)c(OC)c1` it is 140 °C; for `O=C(OCC(Cl)(Cl)Cl)Oc1cc2occ(C(=O)O)c(=O)c2cc1OC(=O)OCC(Cl)(Cl)Cl` it is 166 to 167 °C. The figure for `O=C(Nc1cccnc1)c1ccc(OC(F)F)c2oc3ccccc3c12` is 209 to 211 °C; for `Nc1ccc(F)c(O)c1` it is 156 to 157 °C; for `CCNc1nc(Cl)c(C#N)c(NC(C)C)n1` it is 160 to 165 °C. For `N#Cc1ccc(C(=Cc2ccc(C#N)cn2)Cn2cncn2)cc1`, the melting point is 211 °C. Then `Cc1ccc(S(=O)(=O)NC(=O)CC2(c3ccc(OCc4ccc5ccccc5n4)cc3)CCCC2)cc1`, with 80 °C; and `COc1cc2ncnc(N3CCCc4ccccc43)c2cc1SC`, with 193 to 196 °C. On to `BrCCCCOc1ccc2c(c1)OCO2`, for which the melting point fell in the range of 52 to 54 °C. Then `O=C(OCC1c2ccccc2-c2ccccc21)N1Cc2cccn2Cc2ccccc21`, with 141 to 142 °C; and `NC(=O)CNC(=O)CN1CC(O)CC1=O` (stereo not drawn), with 158 to 160 °C; and `Cc1cccc(Cl)c1NS(=O)(=O)c1n[nH]c(NC=O)n1`, with 291 to 300 °C. The figure for `CCCCCCCCCCOc1ccc(-c2ccc(CCC(C)O)cc2)cc1` (single isomer, unassigned; (+)) is 87 to 89 °C.

For the compound `CCCc1nc(C=O)c(Cl)c(N)c1F`, the melting point lay within 89 to 91 °C. The figure for `COC=C(C#N)C(=O)c1cc(F)c(Cl)cc1Cl` is 159 °C; for `Fc1ccc(Nc2ccccc2C=C(Br)Br)cc1` it is 75 to 77 °C; for `Cc1noc(C)c1C(=O)N1CCC2(CC1)CSC1=C(O2)c2ccccc2C(=O)C1=O` it is 274 to 275 °C. Then `CC(=O)NC[C@H]1CN(c2ccc(/C=C3\C(=O)N(c4ccccc4)N=C3C(C)(C)C)cc2)C(=O)O1`, with 70 °C; and `CC(C)(C)OC(=O)[C@H]1CCCN1CC(=O)N1CCC[C@@H]1C(=O)OC(C)(C)C`, with 75 to 76 °C; and `CCOC(=O)C(C#N)=CNc1ccc(OC)c(OC)c1`, with 150 to 155 °C.

In turn, `COc1ccc(C(CC2=NOC(=O)C2)c2ccccc2)cc1OC1CCCC1` (stereo not drawn) came in with a melting point of 137 to 139 °C.

`O=C(c1cc(-c2cccnc2)c(N2CCOCC2)s1)c1ccc(Cl)cc1Cl` yielded a melting point of 176 °C.

On to `CCc1nn(CCCO)c(CC)c1Oc1cc(C#N)cc(C#N)c1`, for which the melting point was 93 to 95 °C. Then `O=C(Nc1cc(-c2ccnc3c(C(=O)c4cccs4)cnn23)ccc1F)c1ccccc1Cl`, with 166 to 168 °C; and `Cc1cc(-c2nc3cc(-c4ccncc4)cc(N)n3n2)oc1C`, with 275 to 277 °C. For `CNc1cn(-c2cccnc2)nc1Cl`, the melting point fell in the range of 104 to 106 °C. Then `CCc1cccc2cc(C(C)=O)oc12`, with 59 to 60 °C; and `CCCC(=O)Nc1cccc(N(CCO)CCO)c1`, with 88 to 90 °C; and `C=CCOc1ccc(C(C)(C)C)cc1C(C(N)=O)c1ccccc1` (stereo not drawn), with 172 to 174 °C. The figure for `Cn1cc(C(N)=O)c(=O)c2sc(-c3ccccc3)cc21` is 266 to 268 °C; for `COC(=O)C1=C(C(OC)OC)NC(C)=C(C(=O)OCC(C)(C)C)C1c1ccccc1C#N` (stereo not drawn) it is 130 to 131 °C; for `COc1ccc(C2=NN(CC(=O)Nc3cccc(-c4nnc(=O)sc4C)c3)C(=O)[C@H]3CC=CC[C@@H]23)cc1OC` (relative stereo) it is 157 to 161 °C. Then `C=Cc1cccc(C(=O)NC(Nc2c(Nc3cccnc3)c(=O)c2=O)C(C)(C)C)c1` (stereo not drawn), with 209 to 210 °C. In the case of `CC(Cl)(Cl)C(NC(=O)c1cccc(Cl)c1)NC(=NC#N)Nc1ccccc1F` (stereo not drawn), the melting point fell in the range of 136 to 138 °C. For `CCN(CC)CCCN(Cc1ccc(COc2cccc3c2CN(C2CCC(=O)NC2=O)C3=O)cc1)C(=O)OC(C)(C)C` (stereo not drawn), the melting point lay within 140 to 142 °C.

For `COc1ccc(-c2sc(C=NO)c(-c3cccc(OC)c3)c2C)cc1`, the melting point lay within 122 to 141 °C.

For `CCOCn1c(-c2ccc(Cl)cc2)c(C(N)=O)c(Br)c1C(F)(F)F`, the melting point lay within 163 to 172 °C. Regarding `CCCc1c(OCCCOc2ccc3c(c2CCC)OC(C(=O)O)CC3)ccc(C(C)=O)c1O` (stereo not drawn), the melting point fell in the range of 108 to 109 °C.

The compound `O=C1NS(=O)Oc2ccccc21` (stereo not drawn) came in with a melting point of 180 to 182 °C. Then `Cc1nc2ccc3c(c2o1)OC(CNC1CCC(c2c[nH]c4ccc(F)cc24)C1)CO3` (stereo not drawn), with 79 to 82 °C; and `Cn1c(=O)[nH]c(=O)n(-c2cc(Oc3ncc(C(F)(F)F)cc3Cl)ccc2Br)c1=O`, with 97 to 110 °C; and `CC1=C(C(=O)OC(C)C)C(c2cccc([N+](=O)[O-])c2)N(C(=O)OCc2ccccc2)C(=O)N1` (stereo not drawn), with 158 to 159 °C. The figure for `CCOC(=O)C(=Cc1cccn2cc(C(C)C)nc12)N=[N+]=[N-]` is 66 to 68 °C; for `CCCn1nc2c(N)nc3ccccc3c2c1CCNC(=O)c1ccc(F)cc1` it is 198 to 199 °C. The figure for `CCCC(=O)NS(=O)(=O)c1ccc(NC(=O)N2CCc3c(OC)ccc(N4CCN(C)CC4)c3C2)cc1` is 185 to 190 °C. `Cc1cn(Cc2ccccc2)c(=O)n(CCCCl)c1=O` came in with a melting point of 48 to 50 °C. The compound `Cc1ccc(Nc2nc(-c3ccccc3)cs2)nc1` registered a melting point of 260 to 264 °C. Then `COc1cc(OCC(CO)CO)c(-c2cccs2)cc1C=O`, with 144 to 145 °C; and `CN=C(SCc1ccc(OC)cc1)C1(c2cccnc2)CCCCC1CCO` (stereo not drawn), with 145 to 146 °C; and `CC1SC(=O)NN=C1c1ccc2c(c1)CC(C)(C)C(=O)N2` (stereo not drawn), with 245 °C. Then `CNC(=S)N(C)Cc1ccc(Cl)nc1`, with 109 to 110 °C; and `COc1ccc(-c2cc(=O)c3c(OC)cc(OC)c(C4=CCN(C)CC4)c3o2)c(OC)c1OC`, with 209 to 210 °C. With `C=CCOc1ccc(C(=O)Oc2ccc(O)cc2)cc1`, the melting point came out at 146 °C. Then `CC(C)(Oc1ccc(CC(=O)Nc2cc(Cl)cc(Cl)c2)cc1)C(=O)O`, with 138 °C; and `O=C(CNC(=O)c1ccccc1)c1ccsc1`, with 118 to 119 °C.

`C=CCOc1ccc(C(=O)Oc2ccc(OCCCCOC(=O)C(=C)C)cc2)cc1` showed a melting point of 62 to 63 °C. Consider `COc1ccc(N2C(=O)N(c3cccc(C(N)=O)c3)c3nc(Nc4ccccc4)ncc3C2C)c(F)c1` (stereo not drawn), for which the melting point fell in the range of 282 to 286 °C.

On to `CC(C)n1nc(C#Cc2cccc(F)c2)ccc1=O`, for which the melting point fell in the range of 95.5 to 96.5 °C. Then `C[C@]12CCC(=O)N[C@@H]1CCc1cc(Sc3cccc4ccccc34)ccc12`, with 199 to 201 °C; and `CC(O)c1ncnc(N2CCN(S(=O)(=O)N(C)C)CC2)n1` (stereo not drawn), with 124 to 125 °C; and `C[Si](C)(C)C#Cc1c(C#N)nn(-c2c(Cl)cc(OC(F)(F)F)cc2Cl)c1N`, with 152 °C. The figure for `CC(C)Oc1ccc(N2CCCN(c3cc[nH]c(=S)c3C#N)CC2)cc1` is 216 to 218 °C; for `COc1ccc(S(=O)(=O)N(Cc2ccccc2)c2c(C(=O)O)cnc3c2cnn3-c2ccccc2)cc1` it is 108 to 110 °C; for `CCN(CC)CCOc1cccc2c1c1cccc(F)c1n2Cc1ccccc1` it is 60 to 60.5 °C. The figure for `O=C1C=C2C=CC=C2O1` is 81 to 83 °C; for `CCOC(=O)c1c(C)c(C#N)c(N)c(C#N)c1C` it is 206 °C. In turn, `Nc1cnc(F)c(Br)c1` registered a melting point of 91 to 92 °C. Then `CCOC(=O)c1cn2c(cc(Br)c3ccccc32)n1`, with 205 to 207 °C; and `O=c1c2c(oc3ccc(Br)cc13)CCCC2`, with 149 to 150 °C. Then `O=c1c(O)c(-c2ccc(OCc3ccccc3)c(OCc3ccccc3)c2)oc2cc(OCc3ccccc3)ccc12`, with 120 to 121 °C. The figure for `Cn1c(CCCOc2ccc(CC3SC(=O)NC3=O)cc2)nc2cccnc21` (stereo not drawn) is 185 to 186 °C. Turning to `Cc1nc(Cl)c(C#N)cc1-c1ccccc1`, the melting point lay within 134 to 135 °C. The figure for `CC#CCOc1ccc(S(=O)(=O)N(C)C(C(=O)NO)C(C)(C)SCCn2ccnc2)cc1` (stereo not drawn) is 97 to 100 °C. Turning to `N#CN1C(=O)[C@H]2CC=CC[C@H]2C1=O`, the melting point was 136 to 138 °C. The figure for `CCN(CC)c1cc(C)nc(Oc2c(C)cc(Cl)cc2C)c1C` is 184 to 185 °C.

`C=C=CC12CCC(=O)C=C1C=CC1C3CCC(=O)C3(C)CCC12` (stereo not drawn) had a melting point of 152 to 154 °C. In the case of `O=C1NC(=O)C2(N1)C(=O)N(Cc1ccc(Cl)c(Cl)c1)c1c(F)cccc12` (single isomer, unassigned; (+)), the melting point amounted to 246 °C. `CCN(CC)C(=O)c1ccc2ccccc2c1-c1ccc(N(C)C)cc1` gave a melting point of 140 to 141 °C. The figure for `CCOC(=O)C1CCc2c(sc3nc(CCl)c(Cl)c(-c4ccc(OC)cc4)c23)C1` (stereo not drawn) is 113 to 114 °C. `CCCCCCN1c2ccccc2NC(=O)c2cscc21` showed a melting point of 112 to 113 °C. Then `CCCn1nc(C(C)C)c(C(=O)OCOC(C)=O)c1Cc1ccc(-c2ccccc2-c2nnn[nH]2)cc1`, with 58 to 63 °C.

In turn, `CCNC(=O)c1ccc(N2CCN(Cc3cnc4c(c3)[nH]c(=O)n3cccc43)CC2)cc1` yielded a melting point of 252 to 260 °C. Then `Clc1cc(C2CO2)cc(OCc2ccccc2)c1OCc1ccccc1` (stereo not drawn), with 154 to 159 °C.

A word on the melting point: it is the temperature, or range, at which the solid turns liquid.

(Values after a melting point compilation (Tetko et al.; mined from patent text by program, amines drawn as free bases though some values may be those of a salt).)
